Data set [1] in a line: Preliminary thermal stability, heating at 100 °C for 5 min. Particulars: monitored by 1H NMR and LC-MS. It is filed as physicochemical. The source says:
In addition, we checked the preliminary thermal stability of two representative 3‐oxabicyclo[3.1.1]heptanes: carboxylic acid 11b and N‐Boc amino acid 40.

The nature of data set [2]: Experimental pKa of carboxylic acids. Particulars: for pKa: read-out: pKa (exp.). It is filed as physicochemical. The text has this: We also studied the influence of the replacement of the methylene group for the oxygen atom in the bicyclo[3.1.1]heptane skeleton on the electronic properties. For that, we experimentally measured pK a values of the bicyclo[3.1.1]heptane carboxylic acid 49, the 3‐oxabicyclo[3.1.1]heptane carboxylic acid 18b, and meta‐methyl benzoic acid (48) as a reference (Figure 5).^[ [34] ^]

Details of data set [3]: method as in earlier work. To be noted: cited from earlier work.
A short description of data set [4]: Kinetic solubility in phosphate-buffered saline, pH 7.4. It is filed as physicochemical. Particulars: for solubility at 2 h: PBS solubility. Here is the method: page 239: 7. […] The data […] analysis software. […] page 240: Methods Kinetic solubility assay was performed according to Enamine's aqueous solubility SOP. Briefly, […] theoretical concentration of 400 μM in duplicates in phosphate-buffered saline pH 7.4 […] The experimental compound dilutions in PBS were further allowed to equilibrate at 25 °C on a thermostatic shaker for two hours and then filtered through HTS filter plates using a vacuum manifold. The filtrates of test […] prepared to theoretical concentrations of 0 μM (blank), 10 μM, 25 μM, 50 μM, 100 μM, and 200 […] Ondansetron was used as a reference compound to control proper assay performance. 200 μL of each sample was transferred to a 96-well plate and measured in the 230-550 nm range with a 5 nm step. The concentrations of compounds in PBS filtrate are calculated using a dedicated Microsoft Excel calculation script. Proper absorbance wavelengths for calculations are selected for each compound manually based on absorbance maximums (absolute absorbance unit values for the minimum and maximum concentration points within the 0 - 3 OD range). Each final dataset is visually evaluated by the operator, and goodness of fit (R2) is calculated for each calibration curve. […] close to the upper limit of the range may have higher actual solubility (e.g. 5'-deoxy-5- fluorouridine). The calibration curves are shown in Appendix*. […] Compound ID PBS solubility, pH 7.4, μM SE […] Ondansetron 128 126 127** 1.1 EN300-7362818 6 6 6 0.2 (Sonidegib) BCHep-Sonidegib (50) 5 3 4 0.9 Table S3. 2nd batch PBS solubility, pH 7.4, μM Compound ID SE […] Ondansetron 124 124 124** 0.1 EN300-45381956 (51) 34 34 34 0.2 *Goodness of fit (R2) in all titration curves as well as the variations between repeat measurements indicates a high quality of the experimental data in the current batch of test articles. **Ondansetron solubility data are consistent with those previously obtained. […]

Data set [5] is described as follows: Metabolic stability in human liver microsomes. It is filed as in vitro ADME. To be noted: for remaining at […], 2 µM: 15 min. Here is the method:
9. Metabolic Stability in Human Liver Microsomes
The objective of this study was to determine the metabolic stability of 3 test articles (EN300- […]
in human liver microsomes at five-time points over 40 minutes using HPLC-MS. Metabolic stability is defined as the percentage of parent compound lost over time in the presence of a metabolically active test system.
Potassium phosphate monobasic (Bio-Basic, Canada; Lot #N9016010)
Potassium phosphate dibasic (Bio-Basic, Canada; Lot #MA7100050) […]
Glucose-6-phosphate dehydrogenase from baker's yeast, type XV (Sigma-Aldrich, USA; Cat […]
D-Glucose-6-phosphate sodium salt (Sigma-Aldrich, USA; Cat #G7879-1G)
NADPH tetrasodium salt (BLD Pharmatech Ltd., Cat #BD116582)
Verapamil hydrochloride (Sigma Aldrich, USA; Cat #V4629)
Niclosamide (Sigma-Aldrich, USA; Cat #N3510)
DMSO stock solutions of the tested compounds 20 mM
Gradient HPLC system (Shimadzu)
Triple quadrupole mass-detector API 3000 with TurboIonSpray Ion Source (AB Sciex, Canada) […]
Multichannel pipettors 1-30 µL, 2-125 µL, 30-850 µL (Thermo Scientific) […]
All measurements were performed using the Shimadzu HPLC system including vacuum degasser, gradient pumps, reverse phase HPLC column, column oven, and autosampler. Mass spectrometric analysis was performed using an API 3000 mass spectrometer from Applied Biosystems/MDS Sciex (AB Sciex) with Turbo V ion source and TurboIonspray interface. The […]
and system control were performed using Analyst 1.6.3 software from AB Sciex.
Microsomal incubations were carried out in 96-well plates in 5 aliquots of 30 μL each (one for each time point). Liver microsomal incubation medium comprised of phosphate buffer (100 mM, pH 7.4), MgCl2 (3.3 mM), NADPН (3 mM), glucose-6-phosphate (5.3 mM), glucose-6-phosphate dehydrogenase (0.67 units/mL) with 0.42 mg of liver microsomal protein per mL. In the control reactions, the NADPH-cofactor system was substituted with phosphate buffer. Test compounds […]
100 rpm. Five-time points over 40 minutes were analyzed. The reactions were stopped by adding 5 volumes of acetonitrile with internal standard to incubation aliquots, followed by protein sedimentation by centrifuging at 5500 rpm for 5 min. Each reaction was performed in duplicates.
Supernatants were analyzed using the HPLC system coupled with a tandem mass spectrometer.
The elimination constant (kel), half-life (t1/2), and intrinsic clearance (Clint) were determined in a plot of […] versus time, using linear regression analysis:1
1 In order to indicate the quality of the linear regression analysis, the R2 (determination coefficient) values are provided.
In some cases, the last time point is excluded from the calculations to ensure acceptable logarithmic linearity of decay.

Data set [6] is described as follows: physchem.
Data set [7] deals with Hedgehog signaling pathway. Particulars: Mus musculus, NIH3T3, read-out: IC50 (HH signal): inhibition of the Hedgehog signaling pathway, Gli reporter NIH3T3 cell line.
The nature of data set [8]: in vitro. To be noted: human, 90 min, no verapamil; for Papp A→B: Caco-2, pH 7.4, Papp (AB); for Papp B→A: Caco-2, pH 7.4, Papp (BA).
Setting [9] is: 25 °C, pH 7.4, aqueous buffer, kinetic from dmso stock, pH 7.4, Incubation 1.
Where [10] appears, read: 25 °C, pH 7.4, aqueous buffer, kinetic from dmso stock, pH 7.4, Incubation 2.
Setting [11] is: 25 °C, pH 7.4, aqueous buffer, kinetic from dmso stock, pH 7.4, Mean.
Where [12] appears, read: both sexes, human, liver microsomes, pH 7.4, Table S6, 1st batch, 2 µM.
Where [13] appears, read: Table S4, 1st batch, incubation 1.
Where [14] appears, read: Table S4, 1st batch, incubation 2.
The mark [15] stands for this setting: Table S4, 1st batch, incubation 3.

The structures appear in SMILES notation. Values after ≈ are worked out from the molar mass of the structure shown. Values joined by “and” are separate entries in the source; they are usually repeats but may differ in a detail not shown here. Identical values can stand only once. Like-named read-outs stand apart in the source and are kept apart here.

Consider `O=C(O)C12COCC(c3ccc(Br)cc3)(C1)C2` [Compound 11b], for which the thermal stability entry in [1] was “remained stable”.

On to `CC12COCC(C(=O)O)(C1)C2` [Compound 18b], for which, in data set [2], the “pKa (exp.)” value amounted to 4.2 and the pKa came out at 4.23.

`CC(C)(C)OC(=O)NC12COCC(C(=O)O)(C1)C2` [Compound 40]: the thermal stability entry in data set [1] is listed as “remained stable”.

With `Cc1cccc(C(=O)O)c1` [Compound 48, meta‐methyl benzoic acid], the “pKa (exp.)” value in data set [3] is 4.27 and 4.3.

In the case of `CC12CCCC(C(=O)O)(C1)C2` [Compound 49], in data set [2], the “pKa (exp.)” value is recorded as 5.0 and the pKa stood at 5.03.

As for `CC1CN(c2ccc(NC(=O)C34CCCC(c5ccc(OC(F)(F)F)cc5)(C3)C4)cn2)CC(C)O1` (centres unmarked) [Compound 50], in [4] (25 °C, pH 7.4, aqueous buffer, kinetic from dmso stock), the solubility (kinetic) at 2 h amounted to 4 µM (≈ 1.96 µg/mL). Moreover, the solubility at 2 h in [4] (setting [9]) worked out at 5 µM (≈ 2.45 µg/mL); in data set [4] (setting [10]), 3 µM (≈ 1.47 µg/mL); in [4] (setting [11]) it was 4 µM (≈ 1.96 µg/mL). For the same compound, the half-life at 2 μM is 2 h in [5] (both sexes, human, human liver microsomes, pH 7.4, human liver microsomes, read-out: t1/2: experimental half-time of a metabolic decomposition) and approximately 2 h in data set [5] (both sexes, human, liver microsomes, pH 7.4, Table S6, 1st batch, read-out: t1/2). The microsomal CLint at 2 μM was 14 µL/min/mg in data set [5] (both sexes, human, human liver microsomes, pH 7.4, read-out: CLint: experimental metabolic stability in human liver microsomes) and approximately 14 µL/min/mg in data set [5] (both sexes, human, liver microsomes, pH 7.4, Table S6, 1st batch, read-out: Clint). For the same compound, the share remaining at 7 min, 2 µM in [5] (setting [12]) is 92%. The share remaining at […], 2 µM in [5] (setting [12]) stood at 98%. This compound also gave a fraction remaining at 25 min, 2 µM in [5] (both sexes, human, liver microsomes, pH 7.4, Table S6, 1st batch, 25 min, 2 µM) of 88%. Moreover, the amount remaining at 40 min, 2 µM in [5] (both sexes, human, liver microsomes, pH 7.4, Table S6, 1st batch, 40 min, 2 µM, read-out: % Remaining, Mean of 2) amounted to 78%; in data set [5] (both sexes, human, liver microsomes, pH 7.4, Table S6, 1st batch, 40 min, no NADPH, read-out: % Remaining without cofactor, Mean of 2), 93%. In [5] (both sexes, human, liver microsomes, pH 7.4, Table S6, 1st batch), this compound gave a k el at 2 µM of approximately 0.0001 s⁻¹. For the same compound, the D turned out to be 8.66E+04 under setting [13], 8.31E+04 under setting [14] and 8.70E+04 under setting [15]. For the same compound, the logD at 1 h in data set [6] (pH 7.4, LogD, pH 7.4) was not below 4.5; in data set [6] (pH 7.4, LogD, pH 7.4 (overall of 3 incubations)), not below 4.5; in data set [6] (pH 7.4, logD (7.4): experimental distribution coefficient in n-octanol/phosphate-buffered saline, pH 7.4), not below 4. Besides, the half-maximal inhibitory concentration (IC50) in data set [7] came to 616 nM.

Turning to `O=C(O)Cc1ccccc1Nc1c(Cl)cccc1Cl` [Diclofenac], the “% Remaining, Mean of 2” value in data set [5] (Table S6, 1st batch, 25 min, 2 µM) came out at 4%; in [5] (Table S7, 2nd batch, 25 min, 2 µM), 11%; in data set [5] (Table S7, 2nd batch, 40 min, 2 µM), 2%. The “% Remaining without cofactor, Mean of 2” value in data set [5] (Table S6, 1st batch, 40 min, no NADPH) stood at 95%. Also, the share remaining at 7 min, 2 µM in data set [5] (setting [12]) was found to be 46%. The amount remaining at […], 2 µM in data set [5] (setting [12]) was determined as 15%; in data set [5] (both sexes, human, liver microsomes, pH 7.4, Table S7, 2nd batch, 2 µM), 26%. Also, in data set [5] (both sexes, human, liver microsomes, pH 7.4, Table S7, 2nd batch, read-out: Clint), the microsomal CLint at 2 μM is 223 µL/min/mg.

Consider `CC(C(=O)O)c1cccc(C(=O)c2ccccc2)c1` (centres unmarked) [Ketoprofen], for which the Papp A→B in data set [8] (Mean, 10 µM) worked out at 21.8 ×10⁻⁶ cm/s; in [8] (replicate 1, 10 µM) it was 19.8 ×10⁻⁶ cm/s; in data set [8] (replicate 2, 10 µM) it was 23.8 ×10⁻⁶ cm/s. The Papp B→A was 18.7 ×10⁻⁶ cm/s in data set [8] (Mean, 10 µM); 19.5 ×10⁻⁶ cm/s in data set [8] (replicate 1, 10 µM); 17.9 ×10⁻⁶ cm/s in data set [8] (replicate 2, 10 µM).

`COC(=O)Nc1nc2ccc(C(=O)c3ccccc3)cc2[nH]1` [Mebendazole]: the D is, setting by setting: under setting [13], 8.21E+02; under setting [14], 8.87E+02; under setting [15], 8.17E+02; (Table S5, 2nd batch, incubation 1) 9.52E+02; (Table S5, 2nd batch, incubation 2) 1.14E+03; (Table S5, 2nd batch, incubation 3) 8.63E+02. In [6] (pH 7.4, LogD, pH 7.4), the logD at 1 h was found to be 3.06.

For `Cc1nccn1CC1CCc2c(c3ccccc3n2C)C1=O` (centres unmarked) [Ondansetron], the solubility at 2 h in data set [4] (setting [9]), in data set [4] (setting [10]) and in data set [4] (setting [11]) was 124 µM (≈ 36.4 µg/mL) each time. In addition, the “PBS solubility, pH 7.4, Mean” value in [4] (Table S2, 1st batch) came out at 127 µM.

The record behind these values is article PMC12171319, “3‐Oxabicyclo[3.1.1]heptane as an Isostere of meta‐Benzene” (Angewandte Chemie (International Ed. in English), 2025).
